Assays:
[1] = target: human Factor XIa (Homo sapiens (Human), UniProt P03951); test: Factor XIa Assay (fluorogenic substrate GPR-AFC); format: biochemical; conditions: Factor XIa (FXIa)
[2] = target: Human plasma kallikrein (Homo sapiens (Human), UniProt P03952); test: Kallikrein Assay (fluorogenic substrate Acetyl-K-P-R-AFC); format: biochemical; conditions: Plasma Kallikrein (PKal)
Summary of the method: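 Ki is derived from IC50 with the Cheng-Prusoff equation, and IC50 from the inflection point of a four-parameter logistic curve. The rate of AFC release is read with 0.5 nM purified enzyme and […] substrate at room temperature or 37 °C.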

Chain of Human plasma kallikrein (P03952 391-638): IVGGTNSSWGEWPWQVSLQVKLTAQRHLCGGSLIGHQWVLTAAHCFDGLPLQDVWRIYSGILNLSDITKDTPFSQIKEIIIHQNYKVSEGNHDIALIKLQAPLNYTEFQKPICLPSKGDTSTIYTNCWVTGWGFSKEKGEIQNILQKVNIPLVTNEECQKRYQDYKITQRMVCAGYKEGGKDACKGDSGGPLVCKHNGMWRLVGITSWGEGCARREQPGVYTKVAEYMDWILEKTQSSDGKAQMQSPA
Chain of Human plasma kallikrein (P03952 20-390 partner): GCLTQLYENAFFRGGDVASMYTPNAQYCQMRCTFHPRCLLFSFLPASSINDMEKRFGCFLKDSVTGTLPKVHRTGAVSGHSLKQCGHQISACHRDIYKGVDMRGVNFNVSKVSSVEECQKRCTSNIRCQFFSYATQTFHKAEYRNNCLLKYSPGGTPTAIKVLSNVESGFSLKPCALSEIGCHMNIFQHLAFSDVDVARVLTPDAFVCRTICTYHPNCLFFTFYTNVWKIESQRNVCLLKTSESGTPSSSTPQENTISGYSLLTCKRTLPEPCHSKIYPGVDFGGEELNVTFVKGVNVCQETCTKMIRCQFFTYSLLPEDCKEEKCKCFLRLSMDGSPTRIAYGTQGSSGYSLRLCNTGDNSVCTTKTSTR
Chain of human Factor XIa (P03951 388-625 limits assumed): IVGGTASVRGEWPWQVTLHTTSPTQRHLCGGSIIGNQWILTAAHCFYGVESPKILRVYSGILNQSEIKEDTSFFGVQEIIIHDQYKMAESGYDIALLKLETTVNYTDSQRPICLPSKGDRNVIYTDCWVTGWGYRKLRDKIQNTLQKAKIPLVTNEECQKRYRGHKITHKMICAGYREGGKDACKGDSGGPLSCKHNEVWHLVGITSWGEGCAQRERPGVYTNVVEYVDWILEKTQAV
Chain of human Factor XIa (P03951 19-387 partner limits assumed): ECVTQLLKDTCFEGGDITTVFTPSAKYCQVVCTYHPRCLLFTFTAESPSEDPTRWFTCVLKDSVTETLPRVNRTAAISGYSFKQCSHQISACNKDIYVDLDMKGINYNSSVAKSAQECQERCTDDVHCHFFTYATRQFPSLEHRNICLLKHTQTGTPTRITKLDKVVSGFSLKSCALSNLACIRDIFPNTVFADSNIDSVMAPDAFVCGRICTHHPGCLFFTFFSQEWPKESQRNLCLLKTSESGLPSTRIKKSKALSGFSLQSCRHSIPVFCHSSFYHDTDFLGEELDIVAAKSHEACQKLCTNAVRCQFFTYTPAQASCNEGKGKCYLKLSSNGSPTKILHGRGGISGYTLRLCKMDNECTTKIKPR

| IC50 [1] [nM] | IC50 [2] [nM] | Structure (SMILES) |
| --- | --- | --- |
| 549 | 0.3 | COc1cc(C(C)n2cc(NC(=O)c3nc(-c4c(C(F)F)ccc(Cl)c4F)cnc3C)cn2)cnc1N1C[C@H]2C[C@H]2C1=O (single isomer, unassigned) [Example 219, 6-(3-Chloro-6-(difluoromethyl)-2-fluorophenyl)-N-(1-((R or S)-1-(5-methoxy-6-((1R,5S)-2-oxo-3-azabicyclo[3.1.0]hexan-3-yl)pyridin-3-yl)ethyl)-1H-pyrazol-4-yl)-3-methylpyrazine-2-carboxamide] |
| > 10000 | 66.1 | Cc1ncc(-c2c(C(F)F)ccc(Cl)c2F)nc1C(=O)Nc1cnn(C(C)c2cnc(N3C[C@H]4C[C@H]4C3=O)c(OC(F)F)c2C)c1 (single isomer, unassigned) [Example 224] |
| 5740 | 0.9 | Cc1ncc(-c2c(C(F)F)ccc(Cl)c2F)nc1C(=O)Nc1cnn(C(C)c2cnc(N3C[C@H]4C[C@H]4C3=O)c(OC(F)F)c2C)c1 (single isomer, unassigned) [Example 225] |
| > 10000 | 0.8 | Cc1ncc(-c2c(C(F)F)ccc(Cl)c2F)nc1C(=O)Nc1cnn(C(C)c2ncc(N3C[C@H]4C[C@H]4C3=O)c(C)c2C)c1 (single isomer, unassigned) [Example 242, 6-(3-Chloro-6-(difluoromethyl)-2-fluorophenyl)-N-(1-((R or S)-1-(3,4-dimethyl-5-((1R,5S)-2-oxo-3-azabicyclo[3.1.0]hexan-3-yl)pyridin-2-yl)ethyl)-1H-pyrazol-4-yl)-3-methylpyrazine-2-carboxamide] |
| > 10000 | 0.6 | Cc1c(N2C[C@H]3C[C@H]3C2=O)cnc(C(C)n2cc(NC(=O)c3cncc(-c4c(C(F)F)ccc(Cl)c4F)n3)cn2)c1C (single isomer, unassigned) [Example 243, 6-(3-Chloro-6-(difluoromethyl)-2-fluorophenyl)-N-(1-((R or S)-1-(3,4-dimethyl-5-((1R,5S)-2-oxo-3-azabicyclo[3.1.0]hexan-3-yl)pyridin-2-yl)ethyl)-1H-pyrazol-4-yl)pyrazine-2-carboxamide] |
| > 10000 | 46.8 | Cc1ncc(-c2c(C(F)F)ccc(Cl)c2F)nc1C(=O)Nc1cnn(C(C)c2ncc(N3C[C@H]4C[C@H]4C3=O)c(C)c2F)c1 (single isomer, unassigned) [Example 244, 6-(3-Chloro-6-(difluoromethyl)-2-fluorophenyl)-N-(1-((R or S)-1-(3-fluoro-4-methyl-5-((1R,5S)-2-oxo-3-azabicyclo[3.1.0]hexan-3-yl)pyridin-2-yl)ethyl)-1H-pyrazol-4-yl)-3-methylpyrazine-2-carboxamide] |
| > 10000 | 0.9 | Cc1ncc(-c2c(C(F)F)ccc(Cl)c2F)nc1C(=O)Nc1cnn(C(C)c2ncc(N3C[C@H]4C[C@H]4C3=O)c(C)c2F)c1 (single isomer, unassigned) [Example 245, 6-(3-Chloro-6-(difluoromethyl)-2-fluorophenyl)-N-(1-((S or R)-1-(3-fluoro-4-methyl-5-((1R,5S)-2-oxo-3-azabicyclo[3.1.0]hexan-3-yl)pyridin-2-yl)ethyl)-1H-pyrazol-4-yl)-3-methylpyrazine-2-carboxamide] |

Further lines, the compound ahead of its results:

| Structure (SMILES) | IC50 [1] [nM] | IC50 [2] [nM] |
| --- | --- | --- |
| Cc1cc(C(C)n2cc(NC(=O)c3nc(-c4c(C(F)F)ccc(Cl)c4F)cnc3C(C)O)cn2)nnc1N1C[C@H]2C[C@H]2C1=O (single isomer, unassigned) [Example 229, 6-(3-Chloro-6-(difluoromethyl)-2-fluorophenyl)-3-((R or S)-1-hydroxyethyl)-N-(1-((S or R)-1-(5-methyl-6-((1R,5S)-2-oxo-3-azabicyclo[3.1.0]hexan-3-yl)pyridazin-3-yl)ethyl)-1H-pyrazol-4-yl)pyrazine-2-carboxamide] | 178 | 0.37 |
| Cc1cc(C(C)n2cc(NC(=O)c3nc(-c4c(C(F)F)ccc(Cl)c4F)cnc3C(C)O)cn2)nnc1N1C[C@H]2C[C@H]2C1=O (single isomer, unassigned) [Example 230, 6-(3-Chloro-6-(difluoromethyl)-2-fluorophenyl)-3-((S or R)-1-hydroxyethyl)-N-(1-((S or R)-1-(5-methyl-6-((1R,5S)-2-oxo-3-azabicyclo[3.1.0]hexan-3-yl)pyridazin-3-yl)ethyl)-1H-pyrazol-4-yl)pyrazine-2-carboxamide] | 1330 | 1.1 |
| Cc1cc(C(C)n2cc(NC(=O)c3nc(-c4c(C(F)F)ccc(Cl)c4F)cnc3C(C)O)cn2)nnc1N1C[C@H]2C[C@H]2C1=O (single isomer, unassigned) [Example 231, 6-(3-Chloro-6-(difluoromethyl)-2-fluorophenyl)-3-((R or S)-1-hydroxyethyl)-N-(1-((R or S)-1-(5-methyl-6-((1R,5S)-2-oxo-3-azabicyclo[3.1.0]hexan-3-yl)pyridazin-3-yl)ethyl)-1H-pyrazol-4-yl)pyrazine-2-carboxamide] | 903 | 5 |
| Cc1cc(C(C)n2cc(NC(=O)c3nc(-c4c(C(F)F)ccc(Cl)c4F)cnc3C(C)O)cn2)nnc1N1C[C@H]2C[C@H]2C1=O (single isomer, unassigned) [Example 232, 6-(3-Chloro-6-(difluoromethyl)-2-fluorophenyl)-3-((S or R)-1-hydroxyethyl)-N-(1-((R or S)-1-(5-methyl-6-((1R,5S)-2-oxo-3-azabicyclo[3.1.0]hexan-3-yl)pyridazin-3-yl)ethyl)-1H-pyrazol-4-yl)pyrazine-2-carboxamide] | 194 | 1.8 |
| Cc1ncc(-c2c(C#N)ccc(Cl)c2F)nc1C(=O)Nc1cnn(C(C)c2cnc(N3C[C@H]4C[C@H]4C3=O)c(C)n2)c1 (single isomer, unassigned) [Example 234, 6-(3-Chloro-6-cyano-2-fluorophenyl)-3-methyl-N-(1-((R or S)-1-(6-methyl-5-((1R,5S)-2-oxo-3-azabicyclo[3.1.0]hexan-3-yl)pyrazin-2-yl)ethyl)-1H-pyrazol-4-yl)pyrazine-2-carboxamide] | 679 | 1 |
| Cc1ncc(-c2c(C#N)ccc(Cl)c2F)nc1C(=O)Nc1cnn(C(C)c2cnc(N3C[C@H]4C[C@H]4C3=O)c(C)n2)c1 (single isomer, unassigned) [Example 235, 6-(3-Chloro-6-cyano-2-fluorophenyl)-3-methyl-N-(1-((S or R)-1-(6-methyl-5-((1R,5S)-2-oxo-3-azabicyclo[3.1.0]hexan-3-yl)pyrazin-2-yl)ethyl)-1H-pyrazol-4-yl)pyrazine-2-carboxamide] | 2060 | 0.4 |
| Cc1cc(C(C)n2cc(NC(=O)c3nc(-c4c(C#N)ccc(Cl)c4F)cnc3C)cn2)nnc1N1C[C@H]2C[C@H]2C1=O (single isomer, unassigned) [Example 236, 6-(3-Chloro-6-cyano-2-fluorophenyl)-3-methyl-N-(1-((R or S)-1-(5-methyl-6-((1R,5S)-2-oxo-3-azabicyclo[3.1.0]hexan-3-yl)pyridazin-3-yl)ethyl)-1H-pyrazol-4-yl)pyrazine-2-carboxamide] | 750 | 0.7 |
| Cc1cc(C(C)n2cc(NC(=O)c3nc(-c4c(C#N)ccc(Cl)c4F)cnc3C)cn2)nnc1N1C[C@H]2C[C@H]2C1=O (single isomer, unassigned) [Example 237, 6-(3-Chloro-6-cyano-2-fluorophenyl)-3-methyl-N-(1-((S or R)-1-(5-methyl-6-((1R,5S)-2-oxo-3-azabicyclo[3.1.0]hexan-3-yl)pyridazin-3-yl)ethyl)-1H-pyrazol-4-yl)pyrazine-2-carboxamide] | 561 | 4.3 |
| CCc1ncc(-c2c(C(F)F)ccc(Cl)c2F)nc1C(=O)Nc1cnn(C(C)c2cc(C)c(N3C[C@H]4C[C@H]4C3=O)nn2)c1 (single isomer, unassigned) [Example 238, 6-(3-Chloro-6-(difluoromethyl)-2-fluorophenyl)-3-ethyl-N-(1-((R or S)-1-(5-methyl-6-((1R,5S)-2-oxo-3-azabicyclo[3.1.0]hexan-3-yl)pyridazin-3-yl)ethyl)-1H-pyrazol-4-yl)pyrazine-2-carboxamide] | 734 | 6.3 |
| CCc1ncc(-c2c(C(F)F)ccc(Cl)c2F)nc1C(=O)Nc1cnn(C(C)c2cc(C)c(N3C[C@H]4C[C@H]4C3=O)nn2)c1 (single isomer, unassigned) [Example 239, 6-(3-Chloro-6-(difluoromethyl)-2-fluorophenyl)-3-ethyl-N-(1-((S or R)-1-(5-methyl-6-((1R,5S)-2-oxo-3-azabicyclo[3.1.0]hexan-3-yl)pyridazin-3-yl)ethyl)-1H-pyrazol-4-yl)pyrazine-2-carboxamide] | 1230 | 1.8 |
| COc1ncc(-c2c(OC(F)F)ccc(Cl)c2F)nc1C(=O)Nc1cnn(C(C)c2cnc(N3C[C@H]4C[C@H]4C3=O)c(C)n2)c1 (single isomer, unassigned) [Example 240, 6-(3-Chloro-6-(difluoromethoxy)-2-fluorophenyl)-3-methoxy-N-(1-((R or S)-1-(6-methyl-5-((1R,5S)-2-oxo-3-azabicyclo[3.1.0]hexan-3-yl)pyrazin-2-yl)ethyl)-1H-pyrazol-4-yl)pyrazine-2-carboxamide] | 985 | 0.4 |
| COc1ncc(-c2c(OC(F)F)ccc(Cl)c2F)nc1C(=O)Nc1cnn(C(C)c2cnc(N3C[C@H]4C[C@H]4C3=O)c(C)n2)c1 (single isomer, unassigned) [Example 241, 6-(3-Chloro-6-(difluoromethoxy)-2-fluorophenyl)-3-methoxy-N-(1-((S or R)-1-(6-methyl-5-((1R,5S)-2-oxo-3-azabicyclo[3.1.0]hexan-3-yl)pyrazin-2-yl)ethyl)-1H-pyrazol-4-yl)pyrazine-2-carboxamide] | 377 | 0.7 |

Reference: patent publication US20230286958A1, “PLASMA KALLIKREIN INHIBITORS” (Merck Sharp & Dohme LLC, priority 2020, published 2023)
